This is an account of results in patent publication US8921383B2, “Thiazolopyrimidine compounds” (Hoffmann-La Roche Inc., priority 2011, dated 2014).

In the assay the target is T1, purified recombinant human SYK360-635 (Homo sapiens, UniProt P43405).
T1 construct: truncated construct of Spleen Tyrosine Kinase aa 360-635; GST; made in house
Briefly: SYK kinase assay: 33P γATP incorporation into biotinylated peptide substrate, IC50 determination. The following applies: SYK 0.5 nM, ATP 20 μM, DYE peptide 5 μM, 30° C. 15 min; read-out: IC50 h-syk-gst-sf9-c (inactive-dephosphorylated). In kind it is biochemical. Here is the method:
Determination of IC50 of Spleen Tyrosine Kinase (SYK) Inhibition:
SYK kinase assay is a standard kinase assay adapted to a 96 well plate format. This assay is performed in 96-well format for IC50 determination with […] which represented 10 half log dilutions and a 40 μL reaction volume. The assay measures the incorporation of radiolabeled ^33P γATP into an N-terminally biotinylated peptide substrate, derived from naturally occurring phosphoacceptor consensus sequence (Biotin-11aa DY*E). Phosphorylated products were detected upon termination of reactions with EDTA and the addition of Streptavidin coated beads.
Assay plates: 96-well MultiScreen 0.65 um filter plates (Millipore Cat. No.: MADVNOB10)
BSA: Bovine Serum Albumin Fraction V, fatty acid free (Roche Diagnostics GmbH, Cat. No. 9100221) diluted to a final concentration of 0.1%
Assay Dilution Buffer (ADB): 50 mM HEPES, 0.1 mM EGTA, 0.1 mM Na Vanadate, 0.1 mM β-glycerophosphate, 10 mM MgCl2, 1 mM DTT, 0.1% BSA, pH 7.5
Bead wash buffer: 10 g/L PBS (Phosphate buffered saline) with 2M NaCl+1% phosphoric acid.
DMSO and the mixture was incubated for 10 min at RT.
The kinase reaction was initiated by the addition of 10 μL 4× substrate cocktail containing the DYE peptide substrate [0 or 5 μM], ATP [20 μM] and ^33PγATP [2 μCi/r×n]. After incubation at 30° C. for 15 min, the reaction was terminated by the transfer of 25 μL of the reaction sample to a 96 well 0.65 μm Millipore MADVNOB membrane/plate containing 200 μL 5 mM EDTA and 20% Streptavidine coated beads in PBS.
After the last wash membrane/plates were transferred to an adaptor plate, heat dried for 15 min at 60° C., and 50 μL scintillation cocktail was added to each well and 4 h later the amount of radioactivity was counted in a top counter.

The term IC50 denotes the concentration that inhibits the measured activity by half. Regarding `COc1ccc(Nc2nc(-c3cccc(C(F)=Cc4ccc(C(=O)O)cc4)c3)nc3scnc23)cc1OC` (stereo in doubt) [Compound I-31, 4-((E)-2-{3-[7-(3,4-Dimethoxy-phenylamino)-thiazolo[5,4-d]pyrimidin-5-yl]-phenyl}-2-fluoro-vinyl)-benzoic acid], the 50% inhibitory concentration (IC50) is 592 nM.
As to `COc1ccc(Nc2nc(-c3cccc(C(=O)O)c3)nc3scnc23)cc1OC` [Compound I-1, 3-[7-(3,4-Dimethoxy-phenylamino)-thiazolo[5,4-d]pyrimidin-5-yl]-benzoic acid], the IC50 worked out at 421 nM.
Then `COc1ccc(Nc2nc(-c3cccc(C(=O)N4CCCNCC4)c3)nc3scnc23)cc1OC` [Compound I-2, [1,4]Diazepan-1-yl-{3-[7-(3,4-dimethoxy-phenylamino)-thiazolo[5,4-d]pyrimidin-5-yl]-phenyl}-methanone], with 1110 nM; and `CNC(=O)c1ccc(NC(=O)c2cccc(-c3nc(Nc4ccc(OC)c(OC)c4)c4ncsc4n3)c2)cc1` [Compound I-3, 3-(7-(3,4-Dimethoxyphenylamino)thiazolo[5,4-d]pyrimidin-5-yl)-N-(4-(methylcarbamoyl)phenyl)benzamide], with 71 nM.
In the case of `COc1ccc(Nc2nc(N3CCC(NC(=O)c4ccc5c(c4)NC(=O)C5)C3)nc3scnc23)cc1OC` (stereo not shown) [Compound I-8, N-(1-(7-(3,4-Dimethoxyphenylamino)thiazolo[5,4-d]pyrimidin-5-yl)pyrrolidin-3-yl)-2-oxoindoline-6-carboxamide] it was 882 nM; in that of `COc1ccc(Nc2nc(N3CCC(NC(=O)c4ccc(C(=O)O)c(O)c4)C3)nc3scnc23)cc1OC` (stereo not shown) [Compound I-9, 4-(1-(7-(3,4-Dimethoxyphenylamino)thiazolo[5,4-d]pyrimidin-5-yl)pyrrolidin-3-ylcarbamoyl)-2-hydroxybenzoic acid], 40 nM.
As for `COc1ccc(Nc2nc(N3CCC(NC(=O)c4ccc(C(=O)O)c(OC)c4)C3)nc3scnc23)cc1OC` (stereo not shown) [Compound I-10, 4-(1-(7-(3,4-Dimethoxyphenylamino)thiazolo[5,4-d]pyrimidin-5-yl)pyrrolidin-3-ylcarbamoyl)-2-methoxybenzoic acid], the IC50 amounted to 111 nM.
Consider `COc1ccc(Nc2nc(N3CCC(NC(=O)c4ccc5cn[nH]c5c4)C3)nc3scnc23)cc1OC` (stereo not shown) [Compound I-11, N-(1-(7-(3,4-Dimethoxyphenylamino)thiazolo[5,4-d]pyrimidin-5-yl)pyrrolidin-3-yl)-1H-indazole-6-carboxamide], for which the IC50 was determined as 406 nM.
In the case of `COc1ccc(Nc2nc(N3CCC(NC(=O)c4cnccn4)C3)nc3scnc23)cc1OC` (stereo not shown) [Compound I-12, N-(1-(7-(3,4-Dimethoxyphenylamino)thiazolo[5,4-d]pyrimidin-5-yl)pyrrolidin-3-yl)pyrazine-2-carboxamide] it was 933 nM; in that of `COc1ccc(Nc2nc(N3CCC(NC(=O)c4ccc(N)nc4)C3)nc3scnc23)cc1OC` (stereo not shown) [Compound I-13, 6-Amino-N-{1-[7-(3,4-dimethoxy-phenylamino)-thiazolo[5,4-d]pyrimidin-5-yl]-pyrrolidin-3-yl}-nicotinamide], 566 nM; in that of `COc1ccc(Nc2nc(N3CCC(NC(=O)c4ccc5[nH]c(=O)[nH]c5c4)C3)nc3scnc23)cc1OC` (stereo not shown) [Compound I-14, N-(1-(7-(3,4-Dimethoxyphenylamino)thiazolo[5,4-d]pyrimidin-5-yl)pyrrolidin-3-yl)-2-oxo-2,3-dihydro-1H-benzo[d]imidazole-5-carboxamide], 487 nM.
For the compound `COc1ccc(Nc2nc(-c3cccc(C(=O)Nc4ccc(-c5nnc(S)o5)cc4)c3)nc3scnc23)cc1OC` [Compound I-15, 3-[7-(3,4-Dimethoxy-phenylamino)-thiazolo[5,4-d]pyrimidin-5-yl]-N-[4-(5-mercapto-[1,3,4]oxadiazol-2-yl)-phenyl]-benzamide], the half-inhibitory concentration (IC50) was 45 nM.
In the case of `COc1ccc(Nc2nc(-c3cccc(C(=O)Nc4ccc(C(=O)O)c(OC)c4)c3)nc3scnc23)cc1OC` [Compound I-16, 4-(3-(7-(3,4-Dimethoxyphenylamino)thiazolo[5,4-d]pyrimidin-5-yl)benzamido)-2-methoxybenzoic acid] it was 12 nM.
Turning to `COc1ccc(Nc2nc(-c3cccc(C(=O)Nc4ccc5[nH]ncc5c4)c3)nc3scnc23)cc1OC` [Compound I-18, 3-[7-(3,4-Dimethoxy-phenylamino)-thiazolo[5,4-d]pyrimidin-5-yl]-N-(1H-indazol-5-yl)-benzamide], the IC50 is 980 nM.
Then `COc1ccc(Nc2nc(-c3cccc(C(=O)Nc4ccc5cn[nH]c5c4)c3)nc3scnc23)cc1OC` [Compound I-19, 3-[7-(3,4-Dimethoxy-phenylamino)-thiazolo[5,4-d]pyrimidin-5-yl]-N-(1H-indazol-6-yl)-benzamide], with 56 nM.
Regarding `COc1ccc(Nc2nc(-c3ccc(C(=O)NCCc4ccncc4)cc3)nc3scnc23)cc1OC` [Compound I-20, 4-[7-(3,4-Dimethoxy-phenylamino)-thiazolo[5,4-d]pyrimidin-5-yl]-N-(2-pyridin-4-yl-ethyl)-benzamide], the concentration for half-maximal inhibition (IC50) was 566 nM.
For the compound `COc1ccc(Nc2nc(N3CCC(C(=O)NCCc4ccncc4)CC3)nc3scnc23)cc1OC` [Compound I-21, 1-(7-(3,4-Dimethoxyphenylamino)thiazolo[5,4-d]pyrimidin-5-yl)-N-(2-(pyridin-4-yl)ethyl)piperidine-4-carboxamide], the half-inhibitory concentration (IC50) was 1850 nM.
Then `COc1ccc(Nc2nc(N3CCC(C(=O)NCCc4cc[nH]c(=O)c4)CC3)nc3scnc23)cc1OC` [Compound I-22, 1-(7-(3,4-Dimethoxyphenylamino)thiazolo[5,4-d]pyrimidin-5-yl)-N-(2-(2-oxo-1,2-dihydropyridin-4-yl)ethyl)piperidine-4-carboxamide], with 4880 nM.
Turning to `COc1ccc(Nc2nc(-c3ccc(C(=O)NCCc4cc[nH]c(=O)c4)cc3)nc3scnc23)cc1OC` [Compound I-23, 4-(7-(3,4-Dimethoxyphenylamino)thiazolo[5,4-d]pyrimidin-5-yl)-N-(2-(2-oxo-1,2-dihydropyridin-4-yl)ethyl)benzamide], the 50% inhibitory concentration (IC50) was 930 nM.
Take `COc1ccc(Nc2nc(-c3ccc(C(=O)NCCc4ccn(C)c(=O)c4)cc3)nc3scnc23)cc1OC` [Compound I-24, 4-[7-(3,4-Dimethoxy-phenylamino)-thiazolo[5,4-d]pyrimidin-5-yl]-N-[2-(1-methyl-2-oxo-1,2-dihydro-pyridin-4-yl)-ethyl]-benzamide]: the IC50 was 916 nM.
Then `COC(=O)c1cccc(-c2nc(Nc3cccc(S(C)(=O)=O)c3)c3ncsc3n2)c1` [Compound I-26, Methyl 3-(7-(3-(methylsulfonyl)phenylamino)thiazolo[5,4-d]pyrimidin-5-yl)benzoate], with 2060 nM.
In the case of `CS(=O)(=O)c1cccc(Nc2nc(-c3cccc(C(=O)O)c3)nc3scnc23)c1` [Compound I-27, 3-[7-(3-Methanesulfonyl-phenylamino)-thiazolo[5,4-d]pyrimidin-5-yl]-benzoic acid] it was 4610 nM; in that of `COCC1CCCN1c1cccc(Nc2nc(-c3cccc(C(=O)O)c3)nc3scnc23)c1` (stereo not shown) [Compound I-28, 3-{7-[3-(2-Methoxymethyl-pyrrolidin-1-yl)-phenylamino]-thiazolo[5,4-d]pyrimidin-5-yl}-benzoic acid], 3130 nM; in that of `COc1ccc(Nc2nc(-c3cccc(CNc4ccc(C(=O)OC(C)(C)C)cc4)c3)nc3scnc23)cc1OC` [Compound I-29, tert-Butyl 4-(3-(7-(3,4-dimethoxyphenylamino)thiazolo[5,4-d]pyrimidin-5-yl)benzylamino)benzoate], 1490 nM.
Turning to `COc1ccc(Nc2nc(-c3cccc(CNc4ccc(C(=O)O)cc4)c3)nc3scnc23)cc1OC` [Compound I-30, 4-(3-(7-(3,4-Dimethoxyphenylamino)thiazolo[5,4-d]pyrimidin-5-yl)benzylamino)benzoic acid], the half-maximal inhibitory concentration (IC50) is 18 nM.
In the case of `COc1ccc(Nc2nc(-c3cccc(/C=C/c4ccc(C(=O)O)cc4)c3)nc3scnc23)cc1OC` [Compound I-32, (E)-4-(3-(7-(3,4-Dimethoxyphenylamino)thiazolo[5,4-d]pyrimidin-5-yl)styryl)benzoic acid] it was 60 nM.
`COc1ccc(Nc2nc(-c3cccc(CCc4ccc(C(=O)O)cc4)c3)nc3scnc23)cc1OC` [Compound I-33, 4-(3-(7-(3,4-Dimethoxyphenylamino)thiazolo[5,4-d]pyrimidin-5-yl)phenethyl)benzoic acid]: the IC50 worked out at 350 nM.
`O=C(O)c1cccc(-c2nc(Nc3cccc(N4C[C@H]5CC[C@@H](C4)O5)c3)c3ncsc3n2)c1` [Compound I-34, 3-{7-[(1R,5S)-3-(8-Oxa-3-aza-bicyclo[3.2.1]oct-3-yl)-phenylamino]-thiazolo[5,4-d]pyrimidin-5-yl}-benzoic acid]: the half-inhibitory concentration (IC50) was found to be 2470 nM.
